How the values were obtained:
[1] = In vivo pharmacokinetics in female Balb/c Nude mice
Description: Test sample: On the basis of the above experiments, compound 1 was selected for further experiments.
Experimental methods: The purpose of this study was to determine the pharmacokinetic parameters of compound 1 and to calculate its oral bioavailability in female Balb/c Nude mice. This project used 4 female Balb/c Nude mice. Two mice were administered intravenously at a dose of 1 mg/kg, and plasma samples were collected at 0 hours (before administration) and 0.0833, 0.25, 0.5, 1, 2, 4, 6, 8, 24 hours after administration. The other two mice were administered orally by gavage at a dose of 10 mg/kg or 25 mg/kg, and plasma samples were collected at 0 hours (before administration) and 0.25, 0.5, 1, 2, 4, 6, 8, 24 hours after administration. The collected samples were then analyzed by LC/MS/MS and data were collected. The collected analysis data were used to calculate the relevant pharmacokinetic parameters by Phoenix WinNonlin 6.2.1 software.

tumor cell line LoVo = assay: In vitro LoVo cell proliferation inhibition (CellTiter-Glo); format: cell-based; conditions: Homo sapiens, LoVo cells
Description: In this experiment, the inhibitory effect of the compounds on cell proliferation was studied by detecting the effect of the compounds on the in vitro cell activity in the tumor cell line LoVo.
CellTiter-Glo Luminescent Cell Viability Assay
The following steps were carried out according to the instructions of PromegaCellTiter-Glo luminescent cell viability assay kit (Promega-G7573).
(1) CellTiter-Glo buffer was thawed and placed at room temperature.
(2) CellTiter-Glo substrate was placed at room temperature.
(3) CellTiter-Glo working solution was prepared by adding CellTiter-Glo buffer to a vial of CellTiter-Glo substrate to dissolve the substrate.
(4) Slowly vortexed to fully dissolve. […]
(8) The culture plate was left at room temperature for 10 minutes to stabilize the luminescence signal.
(9) The luminescence signal was detected on the SpectraMax i3x of Molecular Devices plate reader.
The Inhibition rate (IR) of the test compound was calculated using the following formula: IR (%)=(1−(RLU compound−RLU blank control)/(RLU solvent control−RLU blank control))*100%. The inhibition rates of different concentrations of the compounds were calculated in Excel, and then the inhibition curves were made by GraphPad Prism software and the related parameters were calculated, including the minimum inhibition rate, the maximum inhibition rate and IC50.

[2] = system: human gastric cancer SNU-601 xenograft tumor; assay: In vivo efficacy, human gastric cancer cell SNU-601 CDX xenograft model; parameters: species or system mice; conditions: for tumor volume: day 21, CB17 SCID mice
Description: The main objective of this study was to study the antitumor efficacy of the test sample on the xenograft tumor model of human gastric cancer cell SNU-601.
• Species: mice • Strain: CB17 SCID mice • Supplier: Huafukang Laboratory Animal Technology Co., Ltd. • Week age: 6-8 weeks old • Gender: female 2. Cell Culture
Human gastric cancer SNU-601 cells, sourced from KCLB (Cat. No.: 00601), were maintained and passaged by HD Biosciences (Shanghai) Co., Ltd. In vitro culture conditions were RPMI 1640 culture medium (containing 300 mg/L L-glutamine) with 10% fetal bovine serum, 25 mM HEPES and 25 mM sodium bicarbonate, incubated in 5% CO2 incubator at 37° C., and passaged for two or three times a week. When the number of cells reached the requirement, the cells were collected and counted. 0.2 mL (5×10^6 cells) SNU-601 cells (resuspended in DPBS:Matrigel=1:1) were subcutaneously inoculated into the right back of each mouse, and the group administration was started when the average tumor volume reached 147.61 mm^3.
Administration dosage: Compound 1 was orally administered at three doses of 15 mg/kg (administered for 3 days without administration for 4 days), 10 mg/kg (administered for 3 days without administration for 4 days) and 5 mg/kg (continuous administration).
Tumor diameters were measured with vernier calipers three times a week. The tumor volume was calculated by the formula: V=0.5×a×b^2, wherein a and b referred to the long and short diameter of the tumor, respectively. The calculation formula of relative tumor volume (RTV) was: RTV (%)=(Vt/V1)×100; the calculation formula of animal body weight change (BWC) was: BWC (%)=(BWt−BW1)/BW1×100, wherein V1 and BW1 referred to the tumor volume and body weight of a certain animal on the day of group administration, and Vt and BWt referred to the tumor volume and body weight of a certain animal at a certain measurement.
The antitumor efficacy of the compounds was evaluated by TGI (%) or relative tumor proliferation rate T/C (%). Relative tumor proliferation rate T/C (%)=TRTV/CRTV×100 (TRTV: mean RTV of the treatment group; CRTV: mean RTV of the negative control group). The relative tumor volume (RTV) was calculated according to the results of tumor measurement, and the calculation formula was RTV=Vt/V1, wherein V1 was the tumor volume measured at the time of group administration (that is, D1), Vt was the tumor volume at a certain measurement, and the data of TRTV and CRTV were taken on the same day.
TGI (%) reflected the tumor growth inhibition rate. TGI (%)=[(1−(average tumor volume at the end of administration of a certain treatment group−average tumor volume at the beginning of administration of this treatment group))/(average tumor volume at the end of treatment in the solvent control group−average tumor volume at the beginning of treatment in the solvent control group)]×100.
After the experiment, the tumor weight would be detected, and the percentage of Tweight/Cweight would be calculated. Tweight and Cweight referred to the tumor weight of the administration group and the solvent control group, respectively.
In this experiment, the xenograft tumor model of human gastric cancer cell SNU601 was used to evaluate the in vivo efficacy of the test compounds. During the whole administration period, no animals were discontinued due to body weight loss of more than 10%, and the efficacy test was terminated on the 21st day after administration.

[3] = target: human ATR kinase (ATR/ATRIP (h)) (Homo sapiens (Human), UniProt Q13535); assay: ATR enzyme activity in vitro (HTRF kinase assay); format: biochemical; conditions: 10 μM ATP, GST-cMyc-p53 substrate
human ATR kinase (ATR/ATRIP (h)), sequence (Q13535 whole entry): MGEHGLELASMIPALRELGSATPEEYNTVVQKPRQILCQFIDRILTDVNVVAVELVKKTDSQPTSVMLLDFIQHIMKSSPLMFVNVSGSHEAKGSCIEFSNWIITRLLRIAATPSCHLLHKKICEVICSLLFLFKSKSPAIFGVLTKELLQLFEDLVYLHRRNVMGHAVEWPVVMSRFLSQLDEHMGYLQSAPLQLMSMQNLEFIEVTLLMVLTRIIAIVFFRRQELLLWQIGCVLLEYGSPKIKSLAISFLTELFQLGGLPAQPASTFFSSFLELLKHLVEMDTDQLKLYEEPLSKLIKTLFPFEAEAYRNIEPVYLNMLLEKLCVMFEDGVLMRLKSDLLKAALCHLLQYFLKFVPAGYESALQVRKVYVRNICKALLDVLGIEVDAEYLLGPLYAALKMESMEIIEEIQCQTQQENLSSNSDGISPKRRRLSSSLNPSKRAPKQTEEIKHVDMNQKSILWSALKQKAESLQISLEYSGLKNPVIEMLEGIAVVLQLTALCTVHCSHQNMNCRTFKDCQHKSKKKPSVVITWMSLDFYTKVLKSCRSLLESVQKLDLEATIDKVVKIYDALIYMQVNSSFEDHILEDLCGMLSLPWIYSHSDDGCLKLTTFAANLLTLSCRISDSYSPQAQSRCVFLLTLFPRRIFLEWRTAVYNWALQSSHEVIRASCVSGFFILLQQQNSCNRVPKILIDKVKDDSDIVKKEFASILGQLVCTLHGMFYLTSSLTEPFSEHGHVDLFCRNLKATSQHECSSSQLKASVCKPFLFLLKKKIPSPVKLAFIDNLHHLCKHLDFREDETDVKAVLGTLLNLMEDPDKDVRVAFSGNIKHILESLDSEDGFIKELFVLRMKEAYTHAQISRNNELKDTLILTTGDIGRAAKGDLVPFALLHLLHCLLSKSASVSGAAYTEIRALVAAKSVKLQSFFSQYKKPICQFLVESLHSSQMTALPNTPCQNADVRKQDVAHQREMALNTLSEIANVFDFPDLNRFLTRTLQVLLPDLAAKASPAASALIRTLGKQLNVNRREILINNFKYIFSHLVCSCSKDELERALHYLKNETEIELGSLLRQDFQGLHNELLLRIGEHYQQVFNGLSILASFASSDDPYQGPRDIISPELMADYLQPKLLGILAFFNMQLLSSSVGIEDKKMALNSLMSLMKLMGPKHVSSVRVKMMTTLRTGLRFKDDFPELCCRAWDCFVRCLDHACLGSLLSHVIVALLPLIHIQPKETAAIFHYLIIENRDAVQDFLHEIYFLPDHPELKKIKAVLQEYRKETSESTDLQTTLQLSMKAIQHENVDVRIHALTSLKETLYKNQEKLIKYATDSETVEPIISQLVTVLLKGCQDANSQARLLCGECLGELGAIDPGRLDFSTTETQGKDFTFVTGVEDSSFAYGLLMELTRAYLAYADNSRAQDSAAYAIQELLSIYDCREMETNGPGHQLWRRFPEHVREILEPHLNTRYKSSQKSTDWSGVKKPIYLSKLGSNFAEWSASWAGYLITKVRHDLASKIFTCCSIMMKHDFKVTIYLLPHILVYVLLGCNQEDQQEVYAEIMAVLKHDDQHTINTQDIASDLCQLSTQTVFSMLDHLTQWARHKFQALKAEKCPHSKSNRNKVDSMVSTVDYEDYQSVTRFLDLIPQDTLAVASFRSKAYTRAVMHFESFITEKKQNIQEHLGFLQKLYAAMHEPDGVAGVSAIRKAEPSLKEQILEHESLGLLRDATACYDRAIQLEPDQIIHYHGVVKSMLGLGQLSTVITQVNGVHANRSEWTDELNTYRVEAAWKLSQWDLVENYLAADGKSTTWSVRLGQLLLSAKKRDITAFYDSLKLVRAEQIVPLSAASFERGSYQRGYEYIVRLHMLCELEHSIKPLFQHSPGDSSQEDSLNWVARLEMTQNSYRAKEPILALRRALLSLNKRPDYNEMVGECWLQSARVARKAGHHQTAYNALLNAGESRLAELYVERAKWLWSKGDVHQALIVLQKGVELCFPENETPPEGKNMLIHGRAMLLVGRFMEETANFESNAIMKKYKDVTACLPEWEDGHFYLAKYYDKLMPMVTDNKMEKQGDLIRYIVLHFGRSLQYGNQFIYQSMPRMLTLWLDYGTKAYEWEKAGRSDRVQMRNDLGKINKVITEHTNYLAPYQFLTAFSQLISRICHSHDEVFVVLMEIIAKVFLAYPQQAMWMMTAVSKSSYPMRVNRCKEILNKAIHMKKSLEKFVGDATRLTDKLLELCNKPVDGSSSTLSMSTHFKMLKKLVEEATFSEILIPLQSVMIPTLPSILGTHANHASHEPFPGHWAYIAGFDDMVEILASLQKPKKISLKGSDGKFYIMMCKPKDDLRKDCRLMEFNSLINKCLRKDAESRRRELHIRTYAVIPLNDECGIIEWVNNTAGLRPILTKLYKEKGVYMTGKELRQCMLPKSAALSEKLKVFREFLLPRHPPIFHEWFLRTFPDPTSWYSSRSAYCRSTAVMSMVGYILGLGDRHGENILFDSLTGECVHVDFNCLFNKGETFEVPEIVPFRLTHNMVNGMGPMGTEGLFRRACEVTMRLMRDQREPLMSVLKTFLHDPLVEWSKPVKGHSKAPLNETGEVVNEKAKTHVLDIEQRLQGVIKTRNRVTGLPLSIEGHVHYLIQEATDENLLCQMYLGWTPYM
human ATR kinase (ATR/ATRIP (h)), sequence (Q8WXE1 whole entry partner): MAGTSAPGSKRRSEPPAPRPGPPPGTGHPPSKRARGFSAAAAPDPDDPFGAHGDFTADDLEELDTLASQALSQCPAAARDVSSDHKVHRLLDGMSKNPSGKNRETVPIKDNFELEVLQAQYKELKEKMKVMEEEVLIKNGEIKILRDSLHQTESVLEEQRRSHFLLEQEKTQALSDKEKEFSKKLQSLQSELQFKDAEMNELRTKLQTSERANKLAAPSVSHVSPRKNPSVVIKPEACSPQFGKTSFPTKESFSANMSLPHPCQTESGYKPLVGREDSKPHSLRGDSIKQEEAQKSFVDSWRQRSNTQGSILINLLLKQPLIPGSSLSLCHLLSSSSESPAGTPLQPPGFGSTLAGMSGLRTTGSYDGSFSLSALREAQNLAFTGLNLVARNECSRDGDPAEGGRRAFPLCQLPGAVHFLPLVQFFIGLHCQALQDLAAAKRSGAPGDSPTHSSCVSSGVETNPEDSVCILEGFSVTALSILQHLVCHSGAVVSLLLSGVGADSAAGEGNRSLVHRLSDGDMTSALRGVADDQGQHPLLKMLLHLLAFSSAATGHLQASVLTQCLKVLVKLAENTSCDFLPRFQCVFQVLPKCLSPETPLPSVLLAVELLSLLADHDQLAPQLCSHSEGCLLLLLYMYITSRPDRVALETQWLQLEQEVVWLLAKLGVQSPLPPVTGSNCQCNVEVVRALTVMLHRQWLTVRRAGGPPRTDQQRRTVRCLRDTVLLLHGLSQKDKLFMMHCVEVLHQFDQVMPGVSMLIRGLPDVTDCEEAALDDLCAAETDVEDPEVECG
Description: The inhibitory activity of the test compounds against human ATR kinase was evaluated by measuring IC50 value.
ATR/ATRIP (h) was incubated in detection buffer containing 50 nM GST-cMyc-p53 and Mg/ATP (10 μM). The reaction was initiated by adding Mg/ATP mixture. After incubation at room temperature for 30 minutes, the reaction was terminated by adding a termination solution containing EDTA. Finally, a detection buffer containing d^2-labeled anti-GST monoclonal antibody and europium-labeled anti-phospho-Ser15 antibody against phosphorylated p53 were added. Plates were then read in time-resolved fluorescence mode for homogeneous time resolution.
The fluorescence (HTRF) signal was determined according to the formula HTRF=10000×(Em665 nm/Em620 nm).

[4] = mouse, plasma, intravenous 1 mg/kg
[5] = whole experimental period, compound 1 administration group

SMILES: Cc1nnn(C)c1-c1cc(-c2c(F)ncc3[nH]ccc23)nc(N2CCOC[C@H]2C)c1 [Compound 1]
- C0 ([1]; mouse, intravenous 1 mg/kg, plasma): 2.8 µM
- AUC(0-t) [1, 4]: 2.55 µM·h
- clearance [1, 4]: 0.948 L/h/kg
- half-life [1, 4]: 1.32 h
- Vd ([1]; mouse, plasma, intravenous 1 mg/kg, read-out: Vdss): 1.65 L/kg
- AUC(0-t) ([1]; mouse, plasma, oral 10 mg/kg): 23 µM·h
- Cmax ([1]; mouse, plasma, oral 10 mg/kg): 9.56 µM
- half-life ([1]; mouse, plasma, oral 10 mg/kg): 1.4 h
- AUC(0-t) ([1]; mouse, plasma, oral 25 mg/kg): 82 µM·h
- Cmax ([1]; mouse, plasma, oral 25 mg/kg): 17.4 µM
- half-life ([1]; mouse, plasma, oral 25 mg/kg): 3.8 h
- F ([1]; oral 10 mg/kg vs intravenous 1 mg/kg): 91.6%
- IC50 (tumor cell line LoVo): 0.102 µM
- tumor volume ([2]; oral 5 mg/kg (continuous administration)): 229.99±24.42 mm^3
- tumor inhibition rate TGI ([2]; oral 5 mg/kg (continuous administration), day 21, p<0.01): 88.61%
- tumor volume ([2]; oral 10 mg/kg (3 days on, 4 days off)): 136.74±14.46 mm^3
- tumor inhibition rate TGI ([2]; oral 10 mg/kg (3 days on, 4 days off), day 21, P<0.01): 101.08%
- tumor volume ([2]; oral 15 mg/kg (3 days on, 4 days off)): 108.74±9.67 mm^3
- tumor inhibition rate TGI ([2]; oral 15 mg/kg (3 days on, 4 days off), day 21, p<0.01): 104.81%
- animal state [2, 5]: had no abnormality
- body weight of the animals [2, 5]: did not decrease significantly
- IC50 [3]: 0.033 µM

SMILES: Cc1nnc(C)n1-c1cc(-c2c(F)ncc3[nH]ccc23)nc(N2CCOC[C@H]2C)c1 [Compound 2]
- IC50 (tumor cell line LoVo): 0.234 µM
- IC50 [3]: 0.069 µM

SMILES: C[C@@H]1COCCN1c1cc(-c2cccn2C)cc(-c2c(F)ncc3[nH]ccc23)n1 [Compound 5]
- IC50 [3]: 0.336 µM

SMILES: C[C@@H]1COCCN1c1cc(-c2cnnn2C)cc(-c2c(F)ncc3[nH]ccc23)n1 [Compound 6]
- IC50 [3]: 0.211 µM

SMILES: Cc1ncccc1-c1cc(-c2c(F)ncc3[nH]ccc23)nc(N2CCOC[C@H]2C)c1 [Compound 7]
- IC50 [3]: 0.078 µM

SMILES: Cc1ccccc1-c1cc(-c2c(F)ncc3[nH]ccc23)nc(N2CCOC[C@H]2C)c1 [Compound 8]
- IC50 [3]: 0.425 µM

SMILES: Cc1n[nH]c(C)c1-c1cc(-c2c(F)ncc3[nH]ccc23)nc(N2CCOC[C@H]2C)c1 [Compound 9]
- IC50 [3]: 0.031 µM

SMILES: COc1cc(C)c(-c2cc(-c3c(F)ncc4[nH]ccc34)nc(N3CCOC[C@H]3C)c2)cn1 [Compound 10]
- IC50 [3]: 0.182 µM

SMILES: Cc1nn(C)cc1-c1cc(-c2c(F)ncc3[nH]ccc23)nc(N2CCOC[C@H]2C)c1 [Compound 13]
- IC50 [3]: 0.5 µM

SMILES: Cc1cnn(C)c1-c1cc(-c2c(F)ncc3[nH]ccc23)nc(N2CCOC[C@H]2C)c1 [Compound 14]
- IC50 [3]: 0.057 µM

SMILES: C[C@@H]1COCCN1c1cc(-c2ccnn2C)cc(-c2c(F)ncc3[nH]ccc23)n1 [Compound 15]
- IC50 [3]: 0.204 µM

SMILES: Cc1noc(C)c1-c1cc(-c2c(F)ncc3[nH]ccc23)nc(N2CCOC[C@H]2C)c1 [Compound 16]
- IC50 [3]: 0.078 µM
